Results published in patent US7005447B2, “Food product comprising hydroxymatairesinol” (Hormos Nutraceutical Oy Ltd., priority 1999, dated 2006).
Where two headings read alike, the source gives them in different places.

Assays:
[1] = tested on: low density lipoprotein (LDL) oxidation; assay: Inhibition of LDL oxidation (CuCl2-induced, absorbance at 234 nm); type: biochemical; settings: CuCl2, 3 hrs at +37° C.; read-out: Inhibition of LDL oxidation, IC-50
Experimental: Inhibition of LDL oxidation was estimated as described by Ahotupa et al, 1996. Shortly: LDL was isolated by precipitation with buffered heparin. After resuspendation in phosphate buffer, 20 mM CuCl2 was added and the mixture was incubated for 3 hrs at +37° C. After this, LDL lipids were extracted with chloroform-methanol, dried under nitrogen, redissolved in cyclohexane and analyzed spectrophotometrically at 234 nm. The intensity of absorbance is indicative of LDL oxidation. To test the ability of different compounds to prevent LDL oxidation, the compounds were added to the incubation mixture prior addition of CuCl2. Possible interference of test compounds with the assay procedure was excluded by measuring the absorption at 234 nm before and after the incubation period.

[2] = tested on: intact and hypoandrogenic Noble strain male rats; assay: Estrogenic and antiestrogenic activity in adult male rats (intact and hypoandrogenic); type: in vivo, rat; settings: for Body weight / Coaculating gland relative weight / Seminal vesicle relative weight / Testis relative weight / Ventral Prostate relative weight: HMR 50 mg/kg daily; for Body weight / Coaculating gland relative weight / Seminal vesicle relative weight / Testis relative weight / Ventral Prostate relative weight / Pituitary LH (μg/pit) / Serum LH / Serum testosterone / Testis testosterone (ng/testis): four weeks, mean ± SD; for Pituitary LH (μg/pit) / Serum LH / Serum testosterone / Testis testosterone (ng/testis): 50 mg/kg HMR
Experimental: Estrogenic (antiandrogenic) and antiestrogenic effects of HMR were studied in intact and hypoandrogenic Noble strain male rats (age 6–9 month), correspondingly. The chronic hypoandrogenic state with both structural and functional changes in the male reproductive tract was induced by neonatal estrogenization (diethylstilbestrol, 10.0 μg/kg body weight in rape oil s.c. on postnatal days 1–5). These changes are known to be partly reversible by aromatase inhibitor treatment consisting daily dose of MPV-2213 ad 10–30 mg/kg body weight (Streng et al. unpublished observations).
Twelve of both intact and hypoandrogenic animals were cavaged in daily dosage of HMR 50 mg/kg body weight in rape oil. Another twelve animals from both animal models were cavaged with rape oil only as a placebo treatment. After four-week treatment the animals were sacrificed. The weights of testis and accessory sex glands (ventral prostate, seminal vesicles and coagulating gland) were measured. Serum and testis testosterone and pituitary and serum luteinizing hormone (LH) levels were measured by immunoassays (Haavisto et al. 1993).

aromatase = biological target: T1, aromatase (Homo sapiens, UniProt P11511); assay: Aromatase inhibiting capacity in JEG-3 cells (3H-17β-estradiol formation from 3H-androstenedione); type: cell-based; settings: 4 h incubation, FIG. 1
T1 construct: 800 μl cell suspension (1 million cells); endogenous in cells; host or cells: JEG-3 human choriocarcinoma cells
T1 sequence (P11511 1-503): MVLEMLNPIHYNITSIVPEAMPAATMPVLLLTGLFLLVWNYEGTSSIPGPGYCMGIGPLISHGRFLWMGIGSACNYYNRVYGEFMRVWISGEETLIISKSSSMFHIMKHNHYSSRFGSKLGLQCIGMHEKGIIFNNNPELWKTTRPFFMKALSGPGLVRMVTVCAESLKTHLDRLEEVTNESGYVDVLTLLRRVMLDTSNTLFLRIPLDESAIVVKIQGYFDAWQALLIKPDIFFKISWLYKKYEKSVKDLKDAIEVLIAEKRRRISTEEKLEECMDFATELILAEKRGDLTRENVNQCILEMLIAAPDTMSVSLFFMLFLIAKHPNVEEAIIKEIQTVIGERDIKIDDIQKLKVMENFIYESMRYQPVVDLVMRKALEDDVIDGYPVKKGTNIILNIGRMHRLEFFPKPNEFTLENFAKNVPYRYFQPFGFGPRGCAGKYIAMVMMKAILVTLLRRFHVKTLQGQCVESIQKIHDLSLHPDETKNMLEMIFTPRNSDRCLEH
Experimental: The effects of HMR and structurally related lignans (enterolactone, enterodiol and 7-hydroxyenterolactone) were studied on formation of ^3H-17β-estradiol from ^3H-andostenedione in JEG-3 cells, human choriocarcinoma cell line. […] Cells were maintained in DMEM containing 10% fetal calf serum (FCS). The incubation mixture contained 50 μl ^3H-androst-4-ene, 3,17-dione (0.5 nM), 50 μl unlabelled androstenedione (0.5 nM), 100 μl test compounds (10 mM) and 800 μl cell suspension (1 million cells). After the incubation for 4 h, unlabelled carriers (androstenedione, testosterone, 17β-estradiol and estrone) were added. The steroids were extracted twice with 3.0 ml dichloromethane. […] The column system consisted of a guard column followed by a C18 150×3.9 mm ID analytical column (Technopak 10 C18 HPLC Technology; Wellington House, Cheshire, UK). The mobile phase was acetonitrile/water (35/65) and the flow rate was 1.2 ml/min. For in-line detection of the radioactive metabolites, the eluent of the HPCL column was continuously mixed with liquid scintillant and then monitored with in-line radioactivity detector.

[3] = tested on: tert-butylhydroperoxide-induced lipid peroxidation (t-BuOOH-LP) in rat liver microsomes; assay: Inhibition of tert-butylhydroperoxide-induced lipid peroxidation (t-BuOOH-LP), chemiluminescence; type: biochemical
Experimental: Inhibition of lipid peroxidation was evaluated on the basis of their potency to inhibit tert-butylhydroperoxide-induced lipid peroxidation (t-BuOOH-LP) in rat liver microsomes in vitro (Ahotupa et al. 1997). The test for the t-BuOOH-LP was carried out as follows: The buffer (50 mM sodium carbonate, pH 10.2, with 0.1 mM EDTA) was pipetted in a volume of 0.8 ml in the luminometer cuvette. Twenty microliters of diluted liver microsomes, final concentration 1.5 mg protein/ml, was added, followed by […] of luminol (0.5 mg/ml) and test chemicals. The test compounds were added to incubation mixtures in a small volume diluted in ethanol or dimethylsulphoxide (2% of incubation volume), and the lipid peroxidation potency was compared to that of the vehicle (ethanol or dimethyl sulphoxide). The reaction was initiated by 0.05 ml of 0.9 mM t-BuOOH at 33° C. Chemiluminescence was measured for about 45 min at 1 min cycles, and the area under curve (integral) was calculated. Chemiluminescence measurements were carried out using a Bio-Orbit 1251 Luminometer (Bio-Orbit, Turku, Finland) connected to a personal computer using dedicated software for the assays.

[4] = control and hypoandrogenic animals, 4-week treatment, versus placebo

Q: Which IC50 [1] does the source give for `COc1cc(CC2C(=O)OCC2C(O)c2ccc(O)c(OC)c2)ccc1O` (stereo not drawn) [HMR, hydroxymatairesinol] here?
A: 2 µM

Q: And the “Changes in testosterone or LH concentrations” value [2, 4]?
A: no significant changes

Q: What about the “Changes in the weights of accessory sex glands and testis” value [2, 4] of the same compound?
A: no significant changes

Q: What about the Body weight ([2]; hypoandrogenemic (neonatally estrogenized) male rats) of the same compound?
A: 455 ± 36 g

Q: And the “Coaculating gland relative weight” value ([2]; hypoandrogenemic male rats)?
A: 70 ± 30 mg/kg body weight

Q: And the “Seminal vesicle relative weight” value ([2]; hypoandrogenemic male rats)?
A: 266 ± 49 mg/kg body weight

Q: And the Testis relative weight ([2]; hypoandrogenemic male rats)?
A: 3276 ± 327 mg/kg body weight

Q: And the “Ventral Prostate relative weight” value ([2]; hypoandrogenemic male rats)?
A: 378 ± 198 mg/kg body weight

Q: And the “Pituitary LH (μg/pit)” value ([2]; hypoandrogenic male rats)?
A: 7.530 ± 2.286 μg/pit

Q: And the “Serum LH” value ([2]; hypoandrogenic male rats)?
A: 0.854 ± 0.333 ng/mL

Q: What about the “Serum testosterone” value ([2]; hypoandrogenic male rats) of the same compound?
A: 0.939 ± 0.431 ng/mL

Q: What about the “Testis testosterone (ng/testis)” value ([2]; hypoandrogenic male rats) of the same compound?
A: 48.0 ± 15.2 ng/testis

Q: And the “Pituitary LH (μg/pit)” value ([2]; intact male rats)?
A: 6.838 ± 2.061 μg/pit

Q: And the “Serum LH” value ([2]; intact male rats)?
A: 1.088 ± 0.352 ng/mL

Q: And the “Serum testosterone” value ([2]; intact male rats)?
A: 2.770 ± 1.421 ng/mL

Q: And the “Testis testosterone (ng/testis)” value ([2]; intact male rats)?
A: 112.9 ± 58.5 ng/testis

Q: And the Body weight ([2]; intact male rats)?
A: 447 ± 38 g

Q: What about the “Coaculating gland relative weight” value ([2]; intact male rats) of the same compound?
A: 204 ± 48 mg/kg body weight

Q: What about the “Seminal vesicle relative weight” value ([2]; intact male rats) of the same compound?
A: 419 ± 59 mg/kg body weight

Q: And the Testis relative weight ([2]; intact male rats)?
A: 4223 ± 304 mg/kg body weight

Q: What about the “Ventral Prostate relative weight” value ([2]; intact male rats) of the same compound?
A: 938 ± 148 mg/kg body weight

Q: What about the “Inhibition of aromatization (3H-17β-estradiol formation from 3H-androstenedione)” value (aromatase) of the same compound?
A: no inhibitory effects

Q: And the IC50 ([3]; Table 3 comparison with known antioxidants, read-out: Inhibition of lipid peroxidation, IC-50)?
A: 0.06 µM

Q: And the IC50 ([3]; lipid peroxidation inhibition test, rat liver microsomes, Table 2, read-out: Antioxidative capacity (t-BuOOH-LP) IC50)?
A: 0.08 µM
